The record followed here is patent US10233186B2, “Inhibitors of activin receptor-like kinase” (BLUEPRINT MEDICINES CORPORATION, priority 2016, dated 2019).

Some results are limits rather than exact numbers.

One test deals with T1, human ALK2 R206H (Homo sapiens, UniProt Q04771, R206H).
T1 construct: expressed in transfected cells; host or cells: HEK293 (ATCC CRL1573), lentivirus transduction, blasticidin selection
T1 sequence (Q04771 21-509 R206H): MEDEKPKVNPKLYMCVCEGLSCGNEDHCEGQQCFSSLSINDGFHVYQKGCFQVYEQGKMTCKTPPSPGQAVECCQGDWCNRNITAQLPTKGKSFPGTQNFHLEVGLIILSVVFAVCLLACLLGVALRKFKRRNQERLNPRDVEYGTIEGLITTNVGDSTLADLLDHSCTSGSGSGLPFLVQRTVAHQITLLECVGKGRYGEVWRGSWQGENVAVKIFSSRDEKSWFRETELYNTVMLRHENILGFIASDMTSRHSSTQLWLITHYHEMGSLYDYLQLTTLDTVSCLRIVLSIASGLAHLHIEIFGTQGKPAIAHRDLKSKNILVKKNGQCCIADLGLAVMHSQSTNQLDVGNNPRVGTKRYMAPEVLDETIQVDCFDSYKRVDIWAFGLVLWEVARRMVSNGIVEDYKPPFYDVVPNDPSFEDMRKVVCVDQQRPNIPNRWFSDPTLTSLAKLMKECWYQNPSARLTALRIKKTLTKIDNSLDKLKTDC
Put plainly: Cell-based ALK2-R206H cell activity assay (Smad1-Ser463/Ser465 phosphorylation by AlphaLISA in HEK293-ALK2-R206H cells). Conditions: read-out: Cell Line (Cell Assay IC50). A digest of the protocol: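 Stable HEK293 cells expressing C-terminally FLAG-tagged human ALK2 R206H (lentiviral, blasticidin-selected) were treated with compounds in 10-point, 3-fold dilutions from 10 μM or 1 μM top, in duplicate. Smad1 Ser463/Ser465 phosphorylation was read by AlphaLISA.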
A general note: Alpha assays give light when donor and acceptor beads are brought close together.

Test [1] deals with T2, ALK2 R206H (GST-tagged mutant ALK2) (Homo sapiens, UniProt Q04771, R206H).
T2 construct: purchased Carna Bioscience or ThermoFisher 09-148 or PV6232
T2 sequence (Q04771 21-509 R206H): T1 sequence (Q04771 21-509 R206H)
Put plainly: ALK binding assay (LANTHASCREEN TR-FRET competitive binding, displacement of Kinase Tracer 178). Conditions: ALK2 R206H, LANTHASCREEN TR-FRET competitive binding; read-out: Binding Assay (IC50).

With `CC(C)N1CC[C@@H](c2ccc(-c3cc4c(N5CCN(C(=O)C6CC6)CC5)ccnn4c3)nc2)C1` [Compound 485], the half-maximal inhibitory concentration (IC50) on human ALK2 R206H was less than 100 nM; in test [1], less than 10 nM.

Regarding `CC(C)N1CC[C@H](c2ccc(-c3cc4c(N5CCN(C(=O)C6CC6)CC5)ccnn4c3)nc2)C1` [Compound 486], the 50% inhibitory concentration (IC50) on human ALK2 R206H is less than 100 nM; in test [1], less than 10 nM.

Take `CC(C)N1CCC[C@@H]1c1ccc(-c2cc3c(N4CCN(C(=O)C5CC5)CC4)ccnn3c2)cn1` [Compound 487]: the IC50 is less than 100 nM at human ALK2 R206H and less than 10 nM in test [1].

Take `COC1(c2ccc(-c3cc4c(N5CCN(C(=O)C6CC6)CC5)ccnn4c3)cc2)CCNCC1` [Compound 488]: the half-inhibitory concentration (IC50) at human ALK2 R206H is less than 100 nM; in test [1], less than 10 nM.

Regarding `CO[C@]1(c2ccc(-c3cc4c(N5CCN(C(=O)C6CC6)CC5)ccnn4c3)cc2)CCCNC1` [Compound 489], the half-maximal inhibitory concentration (IC50) on human ALK2 R206H is less than 100 nM; in test [1] it was less than 10 nM.

In the case of `CO[C@@]1(c2ccc(-c3cc4c(N5CCN(C(=O)C6CC6)CC5)ccnn4c3)cc2)CCCNC1` [Compound 490], the concentration for half-maximal inhibition (IC50) was less than 100 nM on human ALK2 R206H and less than 10 nM in test [1].

With `COC1(c2ccc(-c3cc4c(N5CCN(C(=O)C6CC6)CC5)ccnn4c3)nc2)CCNCC1` [Compound 491], the half-inhibitory concentration (IC50) is less than 100 nM on human ALK2 R206H and less than 10 nM in test [1].

For the molecule `CC(C)NC(=O)N1CCN(c2ccnn3cc(-c4ccc(C5(C)CCNCC5)cc4)cc23)CC1` [Compound 492], the IC50 on human ALK2 R206H was less than 100 nM; in test [1], less than 10 nM.

As for `CC(C)NC(C)(CO)c1ccc(-c2cc3c(N4CCN(C(=O)C5CC5)CC4)ccnn3c2)cc1` (stereo not shown) [Compound 493], the 50% inhibitory concentration (IC50) at human ALK2 R206H is less than 100 nM; in test [1], less than 10 nM.

Take `CCNC(=O)N1CCN(c2ccnn3cc(-c4ccc([C@@H]5CCCN5C(C)C)nc4)cc23)CC1` [Compound 494]: the values for the IC50 (on human ALK2 R206H; in test [1]) were less than 100 nM and less than 10 nM, respectively.

On to `CCNC(=O)N1CCN(c2ccnn3cc(-c4ccc([C@@H]5CCN(C(C)C)C5)cn4)cc23)CC1` [Compound 495], for which the values for the concentration for half-maximal inhibition (IC50) (at human ALK2 R206H; in test [1]) were less than 100 nM and less than 10 nM, respectively.

In the case of `CCNC(=O)N1CCN(c2ccnn3cc(-c4ccc([C@H]5CCN(C(C)C)C5)cn4)cc23)CC1` [Compound 496], the values for the IC50 (at human ALK2 R206H; in test [1]) were less than 100 nM and less than 10 nM, respectively.

Consider `CCNC(=O)N1CCN(c2ccnn3cc(-c4ccc([C@H]5CCCN5C(C)C)nc4)cc23)CC1` [Compound 497], for which the IC50 on human ALK2 R206H was less than 100 nM; in test [1] it was less than 10 nM.

With `CCOC(=O)N1CCN(c2ccnn3cc(-c4ccc(C5(OC)CCNCC5)cc4)cc23)CC1` [Compound 498], the IC50 on human ALK2 R206H was less than 100 nM; in test [1] it was less than 10 nM.

Consider `CC(C)NC(=O)N1CCN(c2ccnn3cc(-c4ccc(C5(F)CCNCC5)cc4)cc23)CC1` [Compound 499], for which the IC50 on human ALK2 R206H was 100 to 500 nM; in test [1] it was less than 10 nM.

With `N#C[C@H]1C[C@H](C(=O)N2CCN(c3ccnn4cc(-c5ccc([C@@H]6CCCNC6)cn5)cc34)CC2)C1` [Compound 500], the results for the half-inhibitory concentration (IC50) (at human ALK2 R206H; in test [1]) were 100 to 500 nM and less than 10 nM, respectively.

Turning to `O=C(C1CC1)N1CCN(c2ccnn3cc(-c4ccc(C5(O)CN6CCC5CC6)cc4)cc23)CC1` (stereo not shown) [Compound 501], the figures for the IC50 (at human ALK2 R206H; in test [1]) were 100 to 500 nM and less than 10 nM, respectively.

Regarding `CC(C)NC(=O)N1CCN(c2ccnn3cc(-c4ccc(C5(C#N)CCNCC5)cc4)cc23)CC1` [Compound 502], the IC50 at human ALK2 R206H was less than 100 nM; in test [1], less than 10 nM.

On to `Cc1cc(-c2cc3c(N4CCN(C(=O)C5CC5)CC4)ccnn3c2)ccc1[C@@H]1CCN(C(C)C)C1` [Compound 503], for which the IC50 at human ALK2 R206H was 100 to 500 nM; in test [1], less than 10 nM.

On to `Cc1cc(-c2cc3c(N4CCN(C(=O)C5CC5)CC4)ccnn3c2)ccc1[C@H]1CCN(C(C)C)C1` [Compound 504], for which the IC50 is 100 to 500 nM on human ALK2 R206H and less than 10 nM in test [1].

For `CC(C)N1C[C@@H](c2ccc(-c3cc4c(N5CCN(C(=O)C6CC6)CC5)ccnn4c3)cc2)C[C@H]1C` [Compound 505], the results for the half-inhibitory concentration (IC50) (on human ALK2 R206H; in test [1]) were less than 100 nM and less than 10 nM, respectively.

Turning to `CC(C)N1C[C@H](c2ccc(-c3cc4c(N5CCN(C(=O)C6CC6)CC5)ccnn4c3)cc2)C[C@@H]1C` [Compound 507], the IC50 at human ALK2 R206H was less than 100 nM; in test [1] it was less than 10 nM.

For the molecule `CC(C)N1C[C@@H](c2ccc(-c3cc4c(N5CCN(C(=O)C6CC6)CC5)ccnn4c3)cc2)C[C@@H]1C` [Compound 508], the 50% inhibitory concentration (IC50) is 100 to 500 nM on human ALK2 R206H and less than 10 nM in test [1].

What is called IC50 is the concentration needed to halve the response being measured.
